From the NIST ThermoML archive (doi:10.1016/j.jct.2013.11.036)

Test: mn = molality of the nth substance listed, in mol/kg
Details: Liquid, Constant-volume piezometry

CCCO [propan-1-ol] + O
Details	mass density [kg/m3]
383.2 K, 3256 kPa, m1 = 7.407	879.4
383.2 K, 6865 kPa, m1 = 7.407	881.7
383.2 K, 12651 kPa, m1 = 7.407	885.3
393.03 K, 3256 kPa, m1 = 14.38	830.8
393.03 K, 6453 kPa, m1 = 14.38	833.7
393.03 K, 9885 kPa, m1 = 14.38	836.6
393.03 K, 13239 kPa, m1 = 14.38	838.9
394.81 K, 3472 kPa, m1 = 2.531	911.1
394.81 K, 7845 kPa, m1 = 2.531	913.4
394.81 K, 11768 kPa, m1 = 2.531	915.6
398.15 K, 5000 kPa, m1 = 0.869	932
398.15 K, 5000 kPa, m1 = 2.465	912.7
398.15 K, 10000 kPa, m1 = 0.869	934.6
398.15 K, 10000 kPa, m1 = 2.465	915.5
398.15 K, 20000 kPa, m1 = 0.869	939.5
398.15 K, 20000 kPa, m1 = 2.465	920.8
398.15 K, 30000 kPa, m1 = 0.869	943.9
398.15 K, 30000 kPa, m1 = 2.465	925.7
398.15 K, 40000 kPa, m1 = 0.869	948
398.15 K, 40000 kPa, m1 = 2.465	930.1
410.72 K, 3923 kPa, m1 = 56.35	771.4
410.72 K, 10787 kPa, m1 = 56.35	780.5
423.15 K, 5000 kPa, m1 = 0.869	909.2
423.15 K, 5000 kPa, m1 = 2.465	888.1
423.15 K, 10000 kPa, m1 = 0.869	912.1
423.15 K, 10000 kPa, m1 = 2.465	891.4
423.15 K, 20000 kPa, m1 = 0.869	917.6
423.15 K, 20000 kPa, m1 = 2.465	897.5
423.15 K, 30000 kPa, m1 = 0.869	922.6
423.15 K, 30000 kPa, m1 = 2.465	903.1
423.15 K, 40000 kPa, m1 = 0.869	927
423.15 K, 40000 kPa, m1 = 2.465	908
423.61 K, 3432 kPa, m1 = 14.38	797.3
423.61 K, 6453 kPa, m1 = 14.38	800.5
423.61 K, 10042 kPa, m1 = 14.38	804.1
423.61 K, 12827 kPa, m1 = 14.38	806.4
426.33 K, 3668 kPa, m1 = 2.531	880.3
426.33 K, 6865 kPa, m1 = 2.531	882.1
426.33 K, 10787 kPa, m1 = 2.531	884.4
427.06 K, 4001 kPa, m1 = 7.407	834.6
427.06 K, 6453 kPa, m1 = 7.407	836.9
427.06 K, 10375 kPa, m1 = 7.407	839.8
448.15 K, 5000 kPa, m1 = 0.869	883
448.15 K, 5000 kPa, m1 = 2.465	860.5
448.15 K, 10000 kPa, m1 = 0.869	886.4
448.15 K, 10000 kPa, m1 = 2.465	864.4
448.15 K, 20000 kPa, m1 = 0.869	892.7
448.15 K, 20000 kPa, m1 = 2.465	871.5
448.15 K, 30000 kPa, m1 = 0.869	898.3
448.15 K, 30000 kPa, m1 = 2.465	877.9
448.15 K, 40000 kPa, m1 = 0.869	903.2
448.15 K, 40000 kPa, m1 = 2.465	883.5
457.85 K, 3589 kPa, m1 = 14.38	754.1
457.85 K, 8198 kPa, m1 = 14.38	760.4
457.85 K, 13141 kPa, m1 = 14.38	766.1
463.81 K, 4805 kPa, m1 = 7.407	790.8
463.81 K, 7355 kPa, m1 = 7.407	793.5
463.81 K, 10787 kPa, m1 = 7.407	796.8
472.74 K, 3668 kPa, m1 = 2.531	826.7
472.74 K, 6531 kPa, m1 = 2.531	829.7
472.74 K, 10297 kPa, m1 = 2.531	832.6
486.26 K, 7512 kPa, m1 = 56.35	668.9
486.26 K, 11278 kPa, m1 = 56.35	680.2
500.33 K, 4982 kPa, m1 = 2.531	790
500.33 K, 7100 kPa, m1 = 2.531	792.6
500.33 K, 9316 kPa, m1 = 2.531	794.5
501.66 K, 4491 kPa, m1 = 14.38	685
501.66 K, 6943 kPa, m1 = 14.38	691.7
501.66 K, 10415 kPa, m1 = 14.38	699.7
501.66 K, 14298 kPa, m1 = 14.38	706.5
504.03 K, 4805 kPa, m1 = 7.407	730.7
504.03 K, 7669 kPa, m1 = 7.407	735.5
504.03 K, 9807 kPa, m1 = 7.407	739.6
504.03 K, 10866 kPa, m1 = 7.407	741.9
536.99 K, 10160 kPa, m1 = 56.35	558.4
536.99 K, 11140 kPa, m1 = 56.35	566.4
536.99 K, 11591 kPa, m1 = 56.35	573.2
537.32 K, 9885 kPa, m1 = 14.38	619.3
537.32 K, 10611 kPa, m1 = 14.38	628.3
537.32 K, 14298 kPa, m1 = 14.38	642.1
538.96 K, 7433 kPa, m1 = 2.531	728.6
538.96 K, 8649 kPa, m1 = 2.531	731.3
538.96 K, 11023 kPa, m1 = 2.531	736.1
543.97 K, 7335 kPa, m1 = 7.407	653.7
543.97 K, 10532 kPa, m1 = 7.407	666.5
543.97 K, 12749 kPa, m1 = 7.407	673.5
574.64 K, 11886 kPa, m1 = 56.35	322.1
574.64 K, 13082 kPa, m1 = 56.35	409.5
574.64 K, 14004 kPa, m1 = 56.35	441.1
574.64 K, 14509 kPa, m1 = 56.35	456.5
574.64 K, 15043 kPa, m1 = 56.35	468
575.95 K, 11768 kPa, m1 = 14.38	437.4
575.95 K, 11886 kPa, m1 = 14.38	475.9
575.95 K, 13317 kPa, m1 = 14.38	509.3
575.95 K, 13729 kPa, m1 = 14.38	521.1
577.86 K, 11717 kPa, m1 = 2.531	643.6
577.86 K, 11768 kPa, m1 = 2.531	652.5
577.86 K, 12160 kPa, m1 = 2.531	656.7
582.08 K, 12239 kPa, m1 = 7.407	540
582.08 K, 12866 kPa, m1 = 7.407	557.8
582.08 K, 13670 kPa, m1 = 7.407	567.6
582.08 K, 14377 kPa, m1 = 7.407	576.7
